Results as given in PubChem BioAssay (NCI).
“And” between values parts separate entries of the source, which are not always exact repeats. Equal values may be shown once.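 Briefly, cells in 96-well plates were exposed to five compound concentrations for 48 h, and endpoints were estimated by linear interpolation. GI50 marks 50% less growth. TGI: concentration producing complete growth inhibition.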

What was measured:
Assay in all cases: NCI anticancer screen, dose series, 48 h
[1] = test system: A498 renal
[2] = test system: ACHN renal
[3] = test system: BT-549 breast
[4] = test system: HL-60(TB) leukemia
[5] = test system: NCI-H226 lung
[6] = test system: NCI-H522 lung
[7] = test system: RXF 393 renal
[8] = test system: SK-MEL-5 melanoma
[9] = test system: SN12C renal
[10] = test system: UACC-257 melanoma

Row | SMILES | TGI [1] | TGI [2] | TGI [3] | TGI [4] | TGI [5] | TGI [6] [µM] | TGI [7] | TGI [8] | TGI [9] | TGI [10] | GI50 [1] | GI50 [2] | GI50 [3] | GI50 [4] | GI50 [5] | GI50 [6] | GI50 [7] | GI50 [8] | GI50 [9] | GI50 [10]
1 | COc1ccc(NC2=CC(=O)C(=O)c3ccccc32)nn1 | 3.29 µM | 5.1 µM | 2.05 µM | 0.898 µM | 5.5 µM | 2.16 | 3.78 µM | 2 µM | 3.52 µM | 3.24 µM |  |  |  |  |  |  |  |  |  | 
2 | COc1ccc(-c2cc(=O)c3c(OC)c(OC)c(OC)cc3o2)cc1 | 84 µM | > 100 µM | > 100 µM | > 100 µM | > 100 µM | 85.3 | > 100 µM | 43.3 µM | 91.1 µM | > 100 µM |  |  |  |  |  |  |  |  |  | 
3 | CC[C@@H]1C(=O)N(C)c2cnc(Nc3ccc(C(=O)NC4CCN(C)CC4)cc3OC)nc2N1C1CCCC1 | 0.146 µM and 0.368 µM | > 5.11 µM and 2.24 µM | > 10 µM and 12.2 µM | 0.00631 µM and 0.0445 µM | > 10 µM and 16.8 µM | < 0.0561 | 0.627 µM and 0.576 µM | 0.205 µM and 0.274 µM | 4.32 µM and 14.1 µM | > 5.26 µM and 1.98 µM | 0.0245 µM and 0.0246 µM | 0.148 µM and 0.0895 µM | 0.0948 µM and 0.0414 µM | 0.00231 µM and < 0.01 µM | 0.343 µM and 0.982 µM | 0.00294 µM and < 0.01 µM | 0.0047 µM and < 0.01 µM | 0.00861 µM and 0.0123 µM | 0.0233 µM and 0.039 µM | 0.903 µM and 0.103 µM
4 | Oc1c(CN2CCC(N3CCCCC3)CC2)cc(Cc2cc(CN3CCC(N4CCCCC4)CC3)c(O)c3ncccc23)c2cccnc12 | 18 µM | 11.7 µM | 5.13 µM |  | 4.53 µM | 3.63 | 10.2 µM | 2.59 µM | 16 µM | 4.31 µM | 5.02 µM | 1.4 µM | 1.48 µM |  | 1.49 µM | 1.39 µM | 1.94 µM | 1.15 µM | 1.62 µM | 2.08 µM
5 | Cn1c(=O)c2[nH]c(SCc3ccccn3)nc2n(C)c1=S | 55.2 µM | > 100 µM | > 100 µM | > 100 µM | > 100 µM | > 100 | > 100 µM | > 100 µM | > 100 µM | > 100 µM |  |  |  |  |  |  |  |  |  | 
6 | CN1CCN(C)C12C=c1ccccc1=CC21CC1 | > 100 µM | > 100 µM | > 100 µM | 46.1 µM | > 100 µM | 52.9 | > 92.6 µM | 51.1 µM | > 100 µM | 48.2 µM |  |  |  |  |  |  |  |  |  | 
7 | CN1CCN(C(=O)OCc2nc3c(N4CCOCC4)nc(Cl)nc3n2C)CC1 | 2.46 µM | 2.11 µM | 2.44 µM | 3.28 µM | 5.41 µM | 2.74 | 2.31 µM | 2.89 µM | 3.06 µM | 3.22 µM | 1.15 µM | 0.831 µM | 1.09 µM | 0.65 µM | 1.96 µM | 1.1 µM | 1.08 µM | 1.55 µM | 1.45 µM | 1.39 µM
8 | Cn1c2ccccc2c2c(-c3ccccc3)[n+]3ccncc3nc21 | > 100 µM | > 100 µM | > 100 µM | > 100 µM | > 100 µM | > 100 | > 100 µM | > 100 µM | > 100 µM | > 100 µM | > 100 µM | > 100 µM | 29.6 µM | > 100 µM | > 100 µM | 48 µM | > 100 µM | 37.2 µM | 48.2 µM | 59.5 µM
9 | CC1(C)OC2[C@@H](CNC(=O)NC(=O)NC(=O)CI)O[C@@H](n3cnc4c(NC(=O)Nc5ccccc5)ncnc43)[C@H]2O1 (stereo partly specified) | > 50 µM | 14.7 µM | 14.7 µM | 4.13 µM | 20.3 µM | 1.5 | 13.6 µM | 16.2 µM | 28.6 µM | 17.8 µM | 18 µM | 6.94 µM | 7.83 µM | 1.61 µM | 8.96 µM | 0.742 µM | 6.96 µM | 8.74 µM | 10.3 µM | 9.91 µM
10 | CC(=O)OCCN1c2ccccc2Sc2cnccc21 | > 10 µM | > 10 µM | > 10 µM | > 10 µM | > 10 µM | > 10 | > 10 µM | > 10 µM | > 10 µM | > 10 µM |  |  |  |  |  |  |  |  |  | 
11 | O=c1[nH]ncc(Br)c1Br | 24 µM | 3.17 µM | 12.2 µM | 4.27 µM | 5.96 µM | 3.25 | 2.71 µM | 15.9 µM | 6.13 µM | 4.84 µM | 11.8 µM | 1.79 µM | 3.63 µM | 2.22 µM | 2.19 µM | 1.71 µM | 1.38 µM | 4.38 µM | 2.34 µM | 2 µM
12 | COc1cc([N+](=O)[O-])cc2c3c(n(C)c12)[C@@]1(C)CCC2c4ccc(OCc5ccccc5)cc4CCC2C1C3 (stereo partly specified) | > 100 µM | > 100 µM | > 100 µM |  | > 100 µM | > 100 | > 100 µM | > 100 µM | > 100 µM | > 100 µM | 35.6 µM | > 100 µM | > 100 µM |  | 80.4 µM | 53.6 µM | 40.8 µM | 78.9 µM | > 100 µM | 85.6 µM
13 | O=C(/C(Br)=C/c1ccccc1)c1ccccc1 | 30 µM | 2.48 µM | 4.6 µM | 6.47 µM | 14.1 µM | 2.23 | 2.85 µM | 17.3 µM | 5.85 µM | 4.49 µM | 15.5 µM | 1.22 µM | 2.08 µM | 2.22 µM | 3.5 µM | 0.396 µM | 1.43 µM | 4.96 µM | 2.34 µM | 1.86 µM
14 | COc1ccc(/C=C/c2nccc3ccccc23)cc1OC | > 10 µM | > 10 µM | > 10 µM | > 10 µM | > 10 µM | > 10 | > 10 µM | > 10 µM | > 10 µM | > 10 µM |  |  |  |  |  |  |  |  |  | 
15 | COc1cc(C2=C(c3ccccc3)COC2=O)cc(OC)c1OC | > 66.1 µM | > 100 µM | > 100 µM | 2.14 µM | > 100 µM | > 57.4 | > 100 µM | 19.3 µM | > 100 µM | > 94.8 µM | 6.87 µM | > 43.5 µM | 33.9 µM | 0.409 µM | 59.2 µM | 2.48 µM | 1.56 µM | 1.4 µM | 5.96 µM | > 25 µM
